“Also recorded” adds a separate entry of the source. Non-standard residues stand in square brackets, D forms with d. Residues, ends and D or L forms follow the SMILES beside them. No end group written: not given here. Hyp = O=C(O)[C@@H]1C[C@@H](O)CN1; aThr = C[C@H](O)[C@H](N)C(=O)O
Experiments:
[1] = test system: SARS-CoV-2; test: Viral reduction plaque assay in Vero cells; format: cell-based; parameters: key to Inhibition of Infection: ++: Validated strong inhibitor; +/−: Validated modest inhibitor; −: Validated no effect; settings: for number of infected cells compared to positive control: Vero cells, increasing concentrations, 4 days; for Inhibition of Infection: in-vitro experiments, SARS-CoV2
[2] = test system: SARS-CoV-2; test: Cytopathic effect (CPE) assay in Vero cells with P-gp inhibitor CP-100356; format: cell-based; settings: for EC50: Severe acute respiratory syndrome coronavirus 2, read-out: EC50 of inhibition of virus-induced CPE
[3] = test system: SARS-CoV-2; format: cell-based
[4] = test system: West Nile virus (WNV); test: WNV replication in Vero cells by viral foci assay; format: cell-based; settings: 100 μM
Source text: To exclude such possibilities, we tested the ability of any of the 4 active compounds plus one negative control compound to suppress the replication of West Nile virus (WNV), an RNA virus of the unrelated flavivirus family. […] Together, our experiments confirmed compounds ZINC000008077555, ZINC000230464020, ZINC000006623878, and ZINC000085876900 as specific inhibitors of SARS-CoV-2 replication but not interfering with the host cell.
The number of infectious SARS-CoV-2 virions was quantified by viral plaque assay. To this end, Vero cells were incubated with SARS-CoV-2 for 2 hrs and subsequently overlaid with 1% methylcellulose in culture medium. After 3-4 days, the cells were fixed in 10% formalin for 30 min, washed under tap water, and stained with crystal violet. The number of plaques corresponding to infections of individual cells by single virions was counted on a light table. The quantification of infectious WNV virions was performed similarly with the exception that the number of infected cell foci was determined by intracellular staining using a biotinylated anti-WNV-E antibody (clone E16), followed by an HRP-labeled anti-streptavidin antibody. HRP activity was detected with KPL Trueblue substrate (SeraCare).
Viral replication of SARS-CoV-2 in the presence of Mpro inhibitors was measured in Vero or Calu-3 cells in three ways. […] The virus-induced cytopathic effect was measured by determining the fraction of formalin-fixed adherent cells that remained after 3 days (Vero cells) or 4 days (Calu-3 cells). To this end, the cells were stained with crystal violet, PBS-washed, and air-dried. Following resuspension in methanol, crystal violet staining was measured in the spectrophometer at OD594. Cytotoxicity of the compounds was measured in parallel by the staining of uninfected cells incubated with the […]. In a second approach, drug activity was determined in Vero cells directly by viral plaque assay, using between 100-500 Pfu/well of virus and indicated concentrations of Mpro inhibitors. In a third approach, Vero cells were infected with SARS-CoV-2 or WNV at an MOI of 0.01 in the presence of […] of Mpro inhibitors for 2-3 days. Viral replication was measured indirectly at indicated time points by quantifying the titers of infectious virions in the supernatants with viral plaque or foci assays in the absence of the compounds. Viral replication in Calu-3 cells in the presence of indicated concentrations of compounds was determined similarly.

[5] = test system: type I IFNs, ISGs, proinflammatory cytokines; format: cell-based, human; settings: for type I IFNs, proinflammatory cytokines and ISGs in infected cells: cell line not given
[6] = test system: Vero cells; settings: 100 μM, with 2 μM CP-100356
Protocol: Vehicle-treated cells served as controls. The amounts of infectious virions in the cell supernatants were determined 2 days later by viral plaque assay.

| Compound | number of infected cells compared to positive control [1] | Inhibition of Infection [1] | EC50 [2] | SARS-CoV-2 replication (viral titers in culture medium) [3] | suppression of SARS-CoV-2 replication, post-treatment [3] | suppression of SARS-CoV-2 replication, pre-treatment [3] | suppression of viral replication [3] | replication of WNV [4] | type I IFNs, proinflammatory cytokines and ISGs in infected cells [5] | activity against virus-induced CPE [2] | replication of WNV ([4]; listed as ZINC00000807555) | expression of type I IFNs, ISGs and proinflammatory cytokines vs cells infected without compound [5] | toxicity [6] | replication of WNV ([4]; listed as ZINC0002304644020) |
| --- | --- | --- | --- | --- | --- | --- | --- | --- | --- | --- | --- | --- | --- | --- |
| COc1ccc(CNC(=O)Cc2c(C)c3ccc(O)c(O)c3oc2=O)c(OC)c1 [ZINC000006623878, 2-(7,8-dihydroxy-4-methyl-2-oxochromen-3-yl)-N-[(2,4-dimethoxyphenyl)methyl]acetamide] | significant drop | ++ | 4.6 to 22.6 µM | suppress SARS-CoV-2 replication | significant suppression | significant suppression | approximately 10 fold | did not significantly restrict replication of WNV; also recorded: do not impact WNV replication | enhance |  |  |  |  |  |
| CC(C)n1[nH]c(=O)c2c(-c3ccc(O)c(O)c3)c3oc4c(O)c(=O)ccc4c3[nH]c21 [ZINC000085879857, 10-(3,4-dihydroxyphenyl)-6-hydroxy-14-propan-2-yl-8-oxa-13,14,16-triazatetracyclo[7.7.0.02,7.011,15]hexadeca-1,3,6,9,11(15)-pentaene-5,12-dione] |  | − |  |  |  |  |  |  |  |  |  |  |  |  |
| C[C@H](NC(=O)[C@H](N)Cc1ccc(O)cc1)C(=O)N[C@H](Cc1ccccc1)C(=O)N1C[C@H](O)C[C@H]1C(=O)N[C@@H](Cc1ccc(O)cc1)C(N)=O [ZINC000644163977, (2S,4R)-N-[(2S)-1-amino-3-(4-hydroxyphenyl)-1-oxopropan-2-yl]-1-[(2R)-2-[[(2S)-2-[[(2R)-2-amino-3-(4-hydroxyphenyl)propanoyl]amino]propanoyl]amino]-3-phenylpropanoyl]-4-hydroxypyrrolidine-2-carboxamide] (H-[dY]A[dF][Hyp]Y-NH2) | modest | +/− |  | did not |  |  |  |  |  | negligible activity |  |  |  |  |
| NC(=O)CC[C@H](NC(=O)OCc1ccccc1)C(=O)NCCc1ccc(F)cc1 [ZINC000008077555, benzyl N-[(2S)-5-amino-1-[2-(4-fluorophenyl)ethylamino]-1,5-dioxopentan-2-yl]carbamate] | significant drop | +/− | 4.6 to 22.6 µM | suppress SARS-CoV-2 replication |  |  | approximately 10 fold | did not significantly restrict replication of WNV | enhance |  | do not impact WNV replication |  |  |  |
| C[C@H](O)[C@H](N)C(=O)N[C@@H](Cc1ccc(O)cc1)C(=O)N[C@@H](CCCCN)C(=O)O [ZINC000005462364, (2S)-6-amino-2-[[(2S)-2-[[(2S,3S)-2-amino-3-hydroxybutanoyl]amino]-3-(4-hydroxyphenyl)propanoyl]amino]hexanoic acid] (H-[aThr]-Tyr-Lys-OH) |  | − |  |  |  |  |  |  |  |  |  |  |  |  |
| Nc1ncnc2c1ncn2[C@@H]1O[C@H](COP(=O)(O)OP(=O)(O)OP(=O)(O)OC[C@@H]2O[C@H](n3cnc4c(N)ncnc43)[C@H](O)[C@@H]2O)[C@H](O)[C@@H]1O [ZINC000085591448, [[(2S,3S,4R,5S)-5-(6-aminopurin-9-yl)-3,4-dihydroxyoxolan-2-yl]methoxy-hydroxyphosphoryl] [[(2R,3R,4S,5R)-5-(6-aminopurin-9-yl)-3,4-dihydroxyoxolan-2-yl]methoxy-hydroxyphosphoryl] hydrogen phosphate] |  | − |  |  |  |  |  |  |  |  |  |  |  |  |
| COc1ccc(-c2coc3c4c(cc(O)c3c2=O)OC(=O)C[C@@H]4c2ccc(OCC(N)=O)cc2)cc1 [ZINC000085876900, 2-[4-[(10R)-5-hydroxy-3-(4-methoxyphenyl)-4,8-dioxo-9,10-dihydropyrano[2,3-h]chromen-10-yl]phenoxy]acetamide] | significant drop |  | 4.6 to 22.6 µM | suppress SARS-CoV-2 replication | significant suppression | significant suppression | approximately 10 fold | did not significantly restrict replication of WNV; also recorded: do not impact WNV replication | enhance |  |  | significantly higher expression | toxic |  |
| RYLGYL [ZINC000097972782, (2S)-2-[[(2S)-2-[[2-[[(2S)-2-[[(2S)-2-[[(2S)-2-amino-5-(diaminomethylideneamino)pentanoyl]amino]-3-(4-hydroxyphenyl)propanoyl]amino]-4-methylpentanoyl]amino]acetyl]amino]-3-(4-hydroxyphenyl)propanoyl]amino]-4-methylpentanoic acid] |  | − |  |  |  |  |  |  |  |  |  |  |  |  |
| COc1cc([C@H](CC(=O)NCCc2ccc(O)c(O)c2)c2c(O)nc3ccccn3c2=O)cc2c1OCCO2 [ZINC000230464020, (3S)-N-[2-(3,4-dihydroxyphenyl)ethyl]-3-(2-hydroxy-4-oxopyrido[1,2-a]pyrimidin-3-yl)-3-(5-methoxy-2,3-dihydro-1,4-benzodioxin-7-yl)propanamide] | significant drop |  | 4.6 to 22.6 µM | suppress SARS-CoV-2 replication | significant suppression | significant suppression | approximately 10 fold | did not significantly restrict replication of WNV | enhance |  |  | significantly higher expression |  | do not impact WNV replication |
